Source: patent US12312330B2, “1-((S)-1-(3-chloro-5-fluoro-2-((4-(1h-pyrazol-1-yl)-2-methylquinolin-8-yloxy)methyl)phenyl)ethyl)-imidazolidine-2,4-dione derivatives and related compounds as bradykinin (BK) B2 receptor antagonist for treating skin diseases” (Pharvaris GmbH, priority 2019, dated 2025)

Each compound was assayed against T1, human bradykinin B2 receptor (hB2R) (Homo sapiens, UniProt P30411) (assay: human bradykinin B2 receptor calcium mobilization (hB2R-CaM) assay). Settings: antagonism of bradykinin (EC80) induced calcium mobilization, B2 Bradykinin Receptor Stable Cell Line HTS041C, 25 min pre-incubation; read-out: IC50-value towards human bradykinin B2 receptor (hB2R).
T1 sequence (P30411 1-391): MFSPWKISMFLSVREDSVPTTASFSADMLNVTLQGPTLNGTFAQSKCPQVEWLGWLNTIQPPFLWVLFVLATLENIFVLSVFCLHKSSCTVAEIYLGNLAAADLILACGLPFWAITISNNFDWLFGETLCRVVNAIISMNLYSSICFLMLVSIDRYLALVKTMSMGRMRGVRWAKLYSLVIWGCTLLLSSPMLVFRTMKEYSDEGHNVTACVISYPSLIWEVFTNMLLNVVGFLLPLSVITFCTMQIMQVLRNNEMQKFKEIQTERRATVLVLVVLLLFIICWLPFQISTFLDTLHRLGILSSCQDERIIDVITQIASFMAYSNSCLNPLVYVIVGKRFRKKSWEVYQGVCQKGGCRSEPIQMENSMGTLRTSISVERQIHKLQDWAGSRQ
Assay type: cell-based
From the text: The following cell-based human bradykinin B2 receptor calcium mobilization (hB2R-CaM) assay was used to determine the antagonistic activity of compounds selected from the example compounds Nos. 1 to 107 towards human bradykinin B2 receptor (hB2R). The assay is defined herein as a standard in vitro B2 receptor activity assay, which can be used to determine IC50 values of the compounds according to the present invention, e. g. the compounds shown in Examples 1-13.
The antagonistic activity of compounds according to the present invention was investigated with the hB2R-CaM assay using the B2 Bradykinin Receptor Stable Cell Line HTS041C (Eurofins, St. Charles MO) and the FLIPR Calcium 6 Assay Kit (Molecular Devices, Wokingham, UK) according to the instructions of the providers. CaM assay measurements were performed with a Flexstation 3 System (Molecular Devices) which allows the precise addition of compounds (B2R antagonists) and bradykinin (B2R agonist) to the cells and adjacent continuous recording of the time-dependent CaM assay signals.
HTS041C cells were cultured in high glucose DMEM cell culture medium (Lonza) supplemented with 10% heat-inactivated FBS (PAN Biotech), 10 mM HEPES, Penicillin/Streptomycin (200 U/mL, 200 μg/mL), lx non-essential amino acids (Lonza), and 250 μg/mL G418 (Invivogen) in cell incubator at 37° C. in a 5% CO2 atmosphere. One day before the CaM assay experiments cells were seeded in 200 μL DMEM cell culture medium with reduced FBS (5%) and without G418 on clear bottom black 96 well plates (ThermoFisher #165305). Cell starvation was carried out by incubation (37° C., 5% CO2) of 70.000 cells/well for 24 h to 28 h. Immediately prior calcium dye-loading the medium was carefully aspirated and cells were washed with Hank's balanced salt solution (HBSS, Gibco) containing Ca^2+, Mg^2+ and 20 mM HEPES, adjusted to pH 7.4 (HBSS+).
For calcium dye-loading one FLIPR 6 assay aliquot was dissolved in 20 mL HBSS+. 150 μL of the dye loading solution was added to cell plate and incubated for 120 min at 37° C. and 5% CO2. After dye loading the cell plate was immediately transferred to the pre-warmed (37° C.) Flexstation 3 System for CaM assaying.
Freshly prepared compound (B2 receptor antagonists) dilution series (8 pt, n=2) and bradykinin (B2 receptor agonist) solution in non-binding plates (Costar) were transferred to the Flexstation System (source plate) shortly before starting the experiment. Bradykinin was added in EC80 concentration determined in n>3 preliminary experiments with 8 pt concentration response curves (n=8)). CaM assay was executed by Flexstation 3 System starting with recording of calcium-sensitive dye fluorescence in bottom-read Flex modus with ex/em=485 nm/525 nm, cut off(em)=515 nm After 20 s, 50 μL of 4-fold concentrated compound dilutions were added to the cells resulting in a final DMSO (Sigma) concentration of 0.1% in the cell plate. CaM signals were monitored for 80 s after additions for detection of potential agonistic activities. Prior to bradykinin stimulus compound- and vehicle-treated cells were incubated for 25 min at 37° C. within the Flexstation System. Then 50 μL of a 5-fold concentrated bradykinin solution (HBSS+, 0.1% DMSO) was added to trigger CaM signals (Read out: Max-Min values) which were measured for 80 s post bradykinin stimulus.
IC50 determinations were performed by 4 parameter logistic model curve fitting of the 8 pt (n=2) compound concentration response curves using XLFIT (IDBS) software.

IC50 [nM] | Compound
11 to 100 | Cc1cc(-c2ncnn2C)c2cccc(OCc3c(Cl)cc(F)cc3[C@H](C)N3CCN(C)C(C)(C)C3=O)c2n1 [Compound No. 10, (S)-1-(1-(3-chloro-5-fluoro-2-((2-methyl-4-(1-methyl-1H-1,2,4-triazol-5-yl)quinolin-8-yloxy)methyl)phenyl)ethyl)-3,3,4-trimethylpiperazin-2-one]
11 to 100 | Cc1cc(-n2cc(F)cn2)c2cccc(OCc3c(Cl)cc(F)cc3[C@H](C)N3CC(=O)NC(C)(C)C3=O)c2n1 [compound 102]
11 to 100 | Cc1cc(-c2ncnn2C)c2cccc(OCc3c(Cl)cc(F)cc3[C@H](C)N3CCC(C)(C)C3=O)c2n1 [compound 65]
11 to 100 | CCN1C(=O)CN([C@@H](C)c2cc(F)cc(Cl)c2COc2cccc3c(-n4cc(F)cn4)cc(C)nc23)C1=O [compound 107]
≤ 10 | CCN1CCN([C@@H](C)c2cc(F)cc(Cl)c2COc2cccc3c(-n4cc(F)cn4)cc(C)nc23)C(=O)C1 [compound 81]
101 to 500 | Cc1cc(-n2cc(F)cn2)c2cccc(OCc3c(Cl)cc(F)cc3[C@H](C)N3CC[C@H](O)C3=O)c2n1 [compound 28]
11 to 100 | Cc1cc(-n2cc(F)cn2)c2cccc(OCc3c(Cl)cc(F)cc3[C@H](C)N3CC[C@@H](O)C3=O)c2n1 [compound 42]
≤ 10 | CCN1C(=O)C(C)N([C@@H](C)c2cc(F)cc(Cl)c2COc2cccc3c(-c4ncnn4C)cc(C)nc23)C1=O (single isomer, unassigned) [compound 53]
11 to 100 | CCN1C(=O)C(C)N([C@@H](C)c2cc(F)cc(Cl)c2COc2cccc3c(-n4cc(F)cn4)cc(C)nc23)C1=O (single isomer, unassigned) [compound 29]
11 to 100 | Cc1cc(-n2cc(F)cn2)c2cccc(OCc3c(Cl)cc(F)cc3[C@H](C)N3CCCC3=O)c2n1 [compound 13]
11 to 100 | Cc1cc(-n2cc(F)cn2)c2cccc(OCc3c(Cl)cc(F)cc3[C@H](C)N3CCC(C)(C)C3=O)c2n1 [compound 64]
11 to 100 | Cc1cc(-n2cc(F)cn2)c2cccc(OCc3c(Cl)cc(F)cc3[C@H](C)N3CC(C)CC3=O)c2n1 (stereo partly drawn) [compound 62]
≤ 10 | Cc1cc(-n2cc(F)cn2)c2cccc(OCc3c(Cl)cc(F)cc3[C@H](C)N3C[C@H](C)NC(=O)C3=O)c2n1 [compound 86]
101 to 500 | Cc1cc(-n2cc(F)cn2)c2cccc(OCc3c(Cl)cc(F)cc3[C@H](C)N3CCN(C(=O)OC(C)(C)C)[C@H](C)C3=O)c2n1 [compound 79]
11 to 100 | Cc1cc(-n2cc(F)cn2)c2cccc(OCc3c(Cl)cc(F)cc3[C@H](C)N3C[C@H](C)OCC3=O)c2n1 [compound 38]
11 to 100 | CCC1CCC(=O)N([C@@H](C)c2cc(F)cc(Cl)c2COc2cccc3c(-n4cc(F)cn4)cc(C)nc23)C1 (stereo partly drawn) [compound 66]
≤ 10 | Cc1cc(-c2ncnn2C)c2cccc(OCc3c(Cl)cc(F)cc3[C@H](C)N3CCOC(C)C3=O)c2n1 (single isomer, unassigned) [compound 48]
≤ 10 | Cc1cc(-n2cc(F)cn2)c2cccc(OCc3c(Cl)cc(F)cc3[C@H](C)N3CC(=O)N(CCO)C3=O)c2n1 [compound 15]
≤ 10 | Cc1cc(-c2ncnn2C)c2cccc(OCc3c(Cl)cc(F)cc3[C@H](C)N3C[C@@H](C)OCC3=O)c2n1 [compound 40]
11 to 100 | CC(=O)N1CCN([C@@H](C)c2cc(F)cc(Cl)c2COc2cccc3c(-n4cc(F)cn4)cc(C)nc23)C(=O)C1 [compound 78]

IC50 [nM] | Compound
≤ 10 | Cc1cc(-c2ncnn2C)c2cccc(OCc3c(Cl)cc(F)cc3[C@H](C)N3CC[C@H](O)C3=O)c2n1 [Compound No. 4, (S)-1-((S)-1-(3-chloro-5-fluoro-2-((2-methyl-4-(1-methyl-1H-1,2,4-triazol-5-yl)quinolin-8-yloxy)methyl)phenyl)ethyl)-3-hydroxypyrrolidin-2-one]
≤ 10 | CCC1CCC(=O)N([C@@H](C)c2cc(F)cc(Cl)c2COc2cccc3c(-c4ncnn4C)cc(C)nc23)C1 (stereo partly drawn) [compound 67]
≤ 10 | Cc1cc(-c2ncnn2C)c2cccc(OCc3c(Cl)cc(F)cc3[C@H](C)N3CCCCC3=O)c2n1 [compound 26]
11 to 100 | Cc1cc(-n2cc(F)cn2)c2cccc(OCc3c(Cl)cc(F)cc3[C@H](C)N3C(=O)[C@@H](C)NC(=O)[C@@H]3C)c2n1 [compound 99]
≤ 10 | Cc1cc(-c2ncnn2C)c2cccc(OCc3c(Cl)cc(F)cc3[C@H](C)N3C(=O)N(C4CC4)C(=O)C3C)c2n1 (single isomer, unassigned) [compound 55]
11 to 100 | Cc1cc(-c2ncnn2C)c2cccc(OCc3c(Cl)cc(F)cc3[C@H](C)N3C(=O)COCC3C)c2n1 (single isomer, unassigned) [compound 70]
11 to 100 | Cc1cc(-n2cc(F)cn2)c2cccc(OCc3c(Cl)cc(F)cc3[C@H](C)N3C(=O)COCC3C)c2n1 (single isomer, unassigned) [compound 32]
11 to 100 | Cc1cc(-c2ncnn2C)c2cccc(OCc3c(Cl)cc(F)cc3[C@H](C)N3CC(=O)NC(C)(C)C3=O)c2n1 [compound 101]
11 to 100 | Cc1cc(-c2ncnn2C)c2cccc(OCc3c(Cl)cc(F)cc3[C@H](C)N3C(=O)[C@H](C)NC(=O)[C@H]3C)c2n1 [compound 106]
≤ 10 | Cc1cc(-c2ncnn2C)c2cccc(OCc3c(Cl)cc(F)cc3[C@H](C)N3CCC(C)C3=O)c2n1 (single isomer, unassigned) [compound 60]
11 to 100 | CNC(=O)CN1C(=O)CN([C@@H](C)c2cc(F)cc(Cl)c2COc2cccc3c(-n4cc(F)cn4)cc(C)nc23)C1=O [compound 20]
≤ 10 | Cc1cc(-n2cc(F)cn2)c2cccc(OCc3c(Cl)cc(F)cc3[C@H](C)N3CCN(C)[C@@H](C)C3=O)c2n1 [compound 92]
11 to 100 | Cc1cc(-c2ncnn2C)c2cccc(OCc3c(Cl)cc(F)cc3[C@H](C)N3C[C@@H](OC(F)F)CC3=O)c2n1 [Compound No. 6, (S)-1-((S)-1-(3-chloro-5-fluoro-2-((2-methyl-4-(1-methyl-1H-1,2,4-triazol-5-yl)quinolin-8-yloxy)methyl)phenyl)ethyl)-4-(difluoromethoxy)pyrrolidin-2-one]
11 to 100 | Cc1cc(-n2cc(F)cn2)c2cccc(OCc3c(Cl)cc(F)cc3[C@H](C)N3CC(=O)NCC3=O)c2n1 [compound 25]
101 to 500 | COC1CN([C@@H](C)c2cc(F)cc(Cl)c2COc2cccc3c(-n4cc(F)cn4)cc(C)nc23)C(=O)O1 (single isomer, unassigned) [compound 52]
11 to 100 | Cc1cc(-c2ncnn2C)c2cccc(OCc3c(Cl)cc(F)cc3[C@H](C)N3C[C@@H](O)CCC3=O)c2n1 [Compound No. 8, (S)-1-((S)-1-(3-chloro-5-fluoro-2-((2-methyl-4-(1-methyl-1H-1,2,4-triazol-5-yl)quinolin-8-yloxy)methyl)phenyl)ethyl)-5-hydroxypiperidin-2-one]
11 to 100 | Cc1cc(-n2cc(F)cn2)c2cccc(OCc3c(Cl)cc(F)cc3[C@H](C)N3C[C@H](O)CC3=O)c2n1 [compound 95]
≤ 10 | Cc1cc(-n2cc(F)cn2)c2cccc(OCc3c(Cl)cc(F)cc3[C@H](C)N3CCN(C(C)C)CC3=O)c2n1 [compound 76]
11 to 100 | Cc1cc(-c2ncnn2C)c2cccc(OCc3c(Cl)cc(F)cc3[C@H](C)N3C[C@H](O)CCC3=O)c2n1 [compound 83]
